Data: patent US8318644B2, “Lubricating oil” (Idemitsu Kosan Co., Ltd., priority 2003, dated 2012)

Test: Density of ionic liquids
Type: physicochemical
Settings: 20° C.
Protocol: Density and molecular weight (Mw) of Ionic liquids 1 to 4 were determined at 20° C., and each ion concentration was calculated from the relationship: [density of ionic liquid (g/cm^3)/molecular weight (MW) of ionic liquid (g/mol)]×1000.

| Compound | density [g/mL] |
| --- | --- |
| CCn1cc[n+](C)c1.F[B-](F)(F)F [Ionic liquid 1, 1-Ethyl-3-methylimidazolium tetrafluoroborate] | 1.283 |
| CCCCn1cc[n+](C)c1.F[B-](F)(F)F [Ionic liquid 4, 1-Butyl-3-methylimidazolium tetrafluoroborate] | 1.208 |
| Butylpyridinium bis(trifluoromethanesulfonyl)imide [Ionic liquid 2] | 1.453 |
| N,N-diethyl-N-methyl(2-methoxyethyl)ammonium bis(trifluoromethanesulfonyl)imide [Ionic liquid 3] | 1.420 |
